Source: PMC8713167, “New Insights into the Structure–Activity Relationship and Neuroprotective Profile of Benzodiazepinone Derivatives of Neurounina-1 as Modulators of the Na^+/Ca^2+ Exchanger Isoforms” (Journal of Medicinal Chemistry, 2021)

Columns and labels:
primary cortical neurons = assay: Cell viability (MTT) of primary cortical neurons exposed to chemical hypoxia followed by RX; type: cell-based, rat
Procedure: Considering that this represents a more demanding experimental paradigm, compound 1 may be considered an interesting tool with a neuroprotective profile. In fact, its neuroprotective effect in cortical neurons exposed to hypoxic conditions was similar to that produced by ischemic PC,[30],[31] a short stimulus inducing ischemic tolerance in neurons (Figure 6B). Furthermore, to better investigate the neuroprotective profile of compound 1, it was tested in primary cortical neurons exposed to chemical hypoxia, followed by RX, a detrimental condition undermining the mitochondrial function. […] However, the specific role of each mode of operation in the neuroprotective effect remains obscure and very difficult to define in this experimental paradigm. […] Therefore, the excessive activation of the NCX3 forward mode determining Ca^2+ extrusion may negatively counterbalance the activation of its reverse mode, favoring Ca^2+ entrance.
Rat cortical neurons were prepared and grown as previously reported.[22],[23] […]
Chemical hypoxia was reproduced by exposing primary cortical neurons for 45 min to a glucose-free medium containing oligomycin (5 μg/mL) plus 2-DG (2 mM), followed by RX (3 h). […] Cell injury was assessed by MTT analysis at the end of each experiment.

[1] = test system: rat primary cortical neurons; assay: Cell viability (MTT) of primary cortical neurons exposed to OGD followed by RX; type: cell-based; settings: for Neuroprotection in cortical neurons exposed to OGD + RX (in words): added during OGD and RX, 1 at 10 nM, 14 at 10 μM
Procedure: Once identified as NCX activity modulators, compounds 1, 4, and 14 were tested on cell viability of primary rat cortical neurons exposed to OGD followed by RX, an experimental condition mimicking hypoxic conditions occurring during stroke. These compounds were added during either OGD or RX phases at the corresponding median effective concentration for their NCX stimulating or inhibiting activity.
Rat cortical neurons were prepared and grown as previously reported.[22],[23] During the exposure to hypoxic conditions, primary cortical neurons at 7/10 DIV were incubated with different concentrations of each previously identified compound. Italian Ministry of Health and the local Animal Care Committee of “Federico II” University of Naples (Italy) approved all animal procedures adopted (D. Lgs. March 4th, 2014 from Italian Ministry of Health; DIR 210/63 UE; 12/2018-UT7).
Hypoxic conditions were induced by exposing rat primary cortical neurons to a oxygen- and glucose-free medium in a humidified atmosphere containing 95% nitrogen and 5% CO2, as previously reported.[22],[23] Cell injury was assessed by MTT analysis. Briefly, neurons were incubated with 1 mL of MTT solution (0.5 mg/mL in PBS). After 1 h of incubation at 37 °C, neurons were dissolved in dimethyl sulfoxide and the rate of MTT variation was measured spectrophotometrically at the wavelength of 540 nm.[22],[57]

NCX1 [2] = molecular target: T1, NCX1 (Canis lupus familiaris, UniProt P23685); assay: Whole-cell patch-clamp electrophysiology of INCX in BHK-NCX1 cells; type: cell-based, dog; settings: CTL100; for Patch-clamp-experiments on BHK-NCX1, forward mode: forward mode (−120 mV); for Patch-clamp-experiments on BHK-NCX1, reverse mode: reverse mode (+60 mV)
T1 construct: expressed in transfected cells; host or cells: BHK (baby hamster kidney) cells, stably transfected

NCX1 [3] = molecular target: T1, NCX1; assay: High-throughput screening of NCX1 reverse mode, Fluo-4-loaded BHK-NCX1 cells, Na+-free pulse; type: cell-based, dog; settings: for Effect on NCX1 activity in the reverse mode (screening, in words): BHK-NCX1, 10 nM and 10 μM; for Fluo-experiments on BHK-NCX1: NCX1 reverse mode, Na+-free, CTL (100), concentration not given (10 nM and 10 μM screened)
NCX3 [4] = molecular target: T2, NCX3 (Rattus norvegicus, UniProt P70549); assay: High-throughput screening of NCX3 reverse mode, Fluo-4-loaded BHK-NCX3 cells, Na+-free pulse; type: cell-based; settings: CTL (100), concentration not given (10 nM and 10 μM screened)
T2 construct: expressed in transfected cells; host or cells: BHK (baby hamster kidney) cells, stably transfected
T2 sequence (P70549 31-927): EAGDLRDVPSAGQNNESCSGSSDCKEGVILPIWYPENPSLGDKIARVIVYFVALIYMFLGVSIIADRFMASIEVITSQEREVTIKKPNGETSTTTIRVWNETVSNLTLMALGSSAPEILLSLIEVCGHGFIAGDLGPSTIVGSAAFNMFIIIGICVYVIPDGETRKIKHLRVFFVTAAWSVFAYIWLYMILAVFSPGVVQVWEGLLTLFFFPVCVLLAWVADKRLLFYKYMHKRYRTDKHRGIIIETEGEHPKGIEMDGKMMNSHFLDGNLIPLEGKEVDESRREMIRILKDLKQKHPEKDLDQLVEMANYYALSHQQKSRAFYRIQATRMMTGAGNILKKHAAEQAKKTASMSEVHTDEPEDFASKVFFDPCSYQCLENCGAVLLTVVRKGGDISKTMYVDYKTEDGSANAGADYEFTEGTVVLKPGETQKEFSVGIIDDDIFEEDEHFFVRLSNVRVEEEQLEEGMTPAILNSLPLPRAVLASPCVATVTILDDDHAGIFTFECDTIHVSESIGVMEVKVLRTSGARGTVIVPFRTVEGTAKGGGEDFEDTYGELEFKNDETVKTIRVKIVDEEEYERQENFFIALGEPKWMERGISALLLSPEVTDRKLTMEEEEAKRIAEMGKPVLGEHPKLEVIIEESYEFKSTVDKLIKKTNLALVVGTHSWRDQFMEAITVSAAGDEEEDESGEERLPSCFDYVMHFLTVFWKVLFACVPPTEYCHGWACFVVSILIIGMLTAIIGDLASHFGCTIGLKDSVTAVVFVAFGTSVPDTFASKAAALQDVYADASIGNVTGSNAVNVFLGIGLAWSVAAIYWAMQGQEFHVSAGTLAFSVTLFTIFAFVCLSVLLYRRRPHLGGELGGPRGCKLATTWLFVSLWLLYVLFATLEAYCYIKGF

NCX1 [5] = molecular target: T1, NCX1; assay: Single-cell Fura-2AM video-imaging, Na+-free-induced [Ca2+]i increase in BHK-NCX1 cells; type: cell-based, dog; settings: for Fura2-experiments on BHK-NCX1 (dose/effect) / Fura2-experiments on BHK-NCX1 (dose/effect), inhibition: Na+-free-induced [Ca2+]i increase, reverse mode
Procedure: Furthermore, NCX activity in the reverse mode of operation was also studied on single cell by Fura-2AM video-imaging in BHK-NCX1 and BHK-NCX3 cells (Figures 3 and 4). […] Furthermore, patch-clamp electrophysiology in the whole-cell configuration was used to measure NCX activity both in the forward and reverse mode of operation.
[Ca^2+]i was measured by single-cell computer-assisted video-imaging using Fura-2 acetoxymethyl ester (Fura-2AM). Neurons were loaded with Fura 2AM (10 μM for 30′ at 37 °C). Experiments were carried out with a MicroMax 512BFT cooled CCD camera (Princeton Instruments, Trenton, NJ, USA), LAMBDA 10-2 filter wheeler (Sutter Instruments, Novato, CA), and Meta-Morph/MetaFluor Imaging System software (Universal Imaging, West Chester, PA). Fura-2 fluorescence intensity was measured every 3 s. From each coverslip, 40–60 individual cells were selected and monitored simultaneously. Assuming that the KD for FURA-2 was 224 nM, the equation of Grynkiewicz was used to for calibration.[58]
The NCX reverse mode was determined by switching the normal Krebs medium to Na^+-deficient NMDG+ medium (Na^+-free), as previously reported.[57]
Compounds were solubilized in dimethyl sulfoxide at concentrations of 1 mM, and stock solutions were kept at −20 °C. Appropriate drug dilutions were prepared daily. Statistical analysis was performed with two-way ANOVA, followed by the Newman–Keuls test. Statistical significance was accepted at the 95% confidence level (p < 0.05). Values are expressed as means ± SEM. To obtain EC50’s of newly synthesized compounds and IC50 of compound 4, all data were fitted to the following binding isotherm: […], where X is the drug concentration and n is the Hill coefficient.

NCX3 [6] = molecular target: T2, NCX3; assay: Whole-cell patch-clamp electrophysiology of INCX in BHK-NCX3 cells; type: cell-based; settings: compound 4 at 10 μM (Figures 5B and S1)
NCX3 [7] = molecular target: T2, NCX3; assay: Single-cell Fura-2AM video-imaging, Na+-free-induced [Ca2+]i increase in BHK-NCX3 cells; type: cell-based

## O=C1CN=C(c2ccccc2Cl)c2cc([N+](=O)[O-])ccc2N1CN1CCCC1 [Compound 1, 5-(2-Chlorophenyl)-7-nitro-1-(pyrrolidin-1-ylmethyl)-1H-benzo[e][1,4]diazepin-2(3H)-one]
Primary cortical neurons; compound 10 nM during chemical hypoxia (45 min) and RX (3 h), chemical Hyp alone 34, control 100
  Neuroprotection: cell viability after chemical hypoxia + RX: 46±1.5 % of control
Primary cortical neurons; compound 1 at 10 nM
  Neuroprotection in cortical neurons exposed to chemical hypoxia + RX (in words): significantly reduced cell suffering
[1]
  Neuroprotection in cortical neurons exposed to OGD + RX (in words): showed a neuroprotective profile
[1]; compound 10 nM added during OGD and RX, OGDrx alone 57, normoxic control 100
  Neuroprotection: cell viability after OGD + RX: 71±0.8 % of control
[1]; preincubated, then removed during OGD + RX
  Neuroprotection when preincubated and removed during OGD and RX (in words): continued to protect neurons from hypoxic conditions
NCX1 [2]
  Patch-clamp-experiments on BHK-NCX1, forward mode: 206±2%
  Patch-clamp-experiments on BHK-NCX1, reverse mode: 305±3%
NCX1 [3]
  Effect on NCX1 activity in the reverse mode (screening, in words): selective NCX1 activator
  Fluo-experiments on BHK-NCX1: 128±1.3
NCX3 [4]
  Fluo-experiments on BHK-NCX3: 100
NCX1 [5]; 1nM
  Fura2-experiments on BHK-NCX1 (dose/effect): 120±1.3 % of controls
NCX1 [5]; 10nM
  Fura2-experiments on BHK-NCX1 (dose/effect): 178±2.3 % of controls
NCX1 [5]; 10µM
  Fura2-experiments on BHK-NCX1 (dose/effect): 190±2.1 % of controls

## O=C1CN=C(c2ccccc2)c2cc([N+](=O)[O-])ccc2N1CCN1CCCC1 [Compound 4, 7-Nitro-5-phenyl-1-[2-(pyrrolidin-1-yl)ethyl]-1H-benzo[e][1,4]diazepin-2(3H)-one]
other
  melting point: 70 to 71 °C
NCX3 [6]
  Effect on NCX activity in BHK-NCX3 cells (in words): failed to modulate
NCX1 [2]; compound 4 at 10 μM (Figure 5)
  Patch-clamp-experiments on BHK-NCX1, forward mode: 85±2.1
  Patch-clamp-experiments on BHK-NCX1, reverse mode: 58±1.1
NCX1 [3]
  Effect on NCX1 activity in the reverse mode (screening, in words): selective NCX1 inhibitor
  Fluo-experiments on BHK-NCX1: 80±2
NCX3 [4]
  Fluo-experiments on BHK-NCX3: 100
NCX1 [5]
  IC50: 10 µM
NCX1 [5]; 1nM
  Fura2-experiments on BHK-NCX1 (dose/effect), inhibition: 98±1.3 % of controls
NCX1 [5]; 10nM
  Fura2-experiments on BHK-NCX1 (dose/effect), inhibition: 97±0.3 % of controls
NCX1 [5]; 10µM
  Fura2-experiments on BHK-NCX1 (dose/effect), inhibition: 41±2.1 % of controls
NCX1 [5]; 30µM
  Fura2-experiments on BHK-NCX1 (dose/effect), inhibition: 9±0.5 % of controls

## CC1CCCCN1C(=O)CN1C(=O)CN=C(c2ccccc2)c2cc([N+](=O)[O-])ccc21 (stereo not shown) [Compound 14, 1-[2-(2-Methylpiperidin-1-yl)-2-oxoethyl]-7-nitro-5-phenyl-1H-benzo[e][1,4]-diazepin-2(3H)-one]
[1]
  Neuroprotection in cortical neurons exposed to OGD + RX (in words): lack of neuroprotection
NCX1 [5]
  EC50: 0.0035 µM
NCX3 [7]
  EC50: 2 µM
